Experimental data as given in paper PMC7617869, “Molecular glues that inhibit deubiquitylase activity and inflammatory signaling” (Nature Structural & Molecular Biology, 2025).
Values joined by “and” are separate entries in the source; they are usually repeats but may differ in a detail not shown here. Equal entries are not always repeated.

Key:
Test in all cases: DUB selectivity profiling (DUBprofiler, ubiquitin–rhodamine(110)–glycine)
Assay type in all cases: biochemical
[1] = target: T1, panel of 48 purified DUBs (Homo sapiens, UniProt A6NNY8); details: DUB USP27X; screening concentration 5 μM; 5 µM
T1 construct: purchased Ubiquigent (DUBprofiler service)
Description: (§1) Biochemical selectivity profiling (DUBprofiler) was performed by Ubiquigent with a panel of 48 purified DUBs and ubiquitin–rhodamine(110)–glycine as a fluorescent substrate.

[2] = target: T2, panel of 48 purified DUBs (Homo sapiens, UniProt O75317); details: DUB USP12/UAF1/WDR20; screening concentration 5 μM
T2 construct: purchased Ubiquigent (DUBprofiler service)
Description: as §1

[3] = target: T3, panel of 48 purified DUBs (Homo sapiens, UniProt O75604); details: DUB USP2; screening concentration 5 μM; 5 µM
T3 construct: purchased Ubiquigent (DUBprofiler service)
Description: as §1

[4] = target: T4, panel of 48 purified DUBs (Homo sapiens, UniProt O94782); details: DUB USP1/UAF1; screening concentration 5 μM; 5 µM
T4 construct: purchased Ubiquigent (DUBprofiler service)
Description: as §1

[5] = target: T5, panel of 48 purified DUBs (Homo sapiens, UniProt P15374); details: DUB UCHL3; screening concentration 5 μM; 5 µM
T5 construct: purchased Ubiquigent (DUBprofiler service)
Description: as §1

[6] = target: T6, panel of 48 purified DUBs (Homo sapiens, UniProt P35125); details: DUB USP6; screening concentration 5 μM; 5 µM
T6 construct: purchased Ubiquigent (DUBprofiler service)
Description: as §1

[7] = target: T7, panel of 48 purified DUBs (Homo sapiens, UniProt P40818); details: DUB USP8; screening concentration 5 μM; 5 µM
T7 construct: purchased Ubiquigent (DUBprofiler service)
Description: as §1

[8] = target: T8, panel of 48 purified DUBs (Homo sapiens, UniProt P45974); details: DUB USP5; screening concentration 5 μM; 5 µM
T8 construct: purchased Ubiquigent (DUBprofiler service)
Description: as §1

[9] = target: T9, panel of 48 purified DUBs (Homo sapiens, UniProt P51784); details: DUB USP11; screening concentration 5 μM; 5 µM
T9 construct: purchased Ubiquigent (DUBprofiler service)
Description: as §1

[10] = target: T10, panel of 48 purified DUBs (Homo sapiens, UniProt P54578); details: DUB USP14; screening concentration 5 μM; 5 µM
T10 construct: purchased Ubiquigent (DUBprofiler service)
Description: as §1

[11] = target: T11, panel of 48 purified DUBs (Homo sapiens, UniProt P62068); details: DUB USP46/UAF1/WDR20; screening concentration 5 μM; 5 µM
T11 construct: purchased Ubiquigent (DUBprofiler service)
Description: as §1

[12] = target: T12, panel of 48 purified DUBs (Homo sapiens, UniProt Q14694); details: DUB USP10; screening concentration 5 μM; 5 µM
T12 construct: purchased Ubiquigent (DUBprofiler service)
Description: as §1

[13] = target: T13, panel of 48 purified DUBs (Homo sapiens, UniProt Q15040); details: DUB JOSD1; screening concentration 5 μM
T13 construct: purchased Ubiquigent (DUBprofiler service)
Description: as §1

[14] = target: T14, panel of 48 purified DUBs (Homo sapiens, UniProt Q5VV17); details: DUB OTUD1; screening concentration 5 μM; 5 µM
T14 construct: purchased Ubiquigent (DUBprofiler service)
Description: as §1

[15] = target: T15, panel of 48 purified DUBs (Homo sapiens, UniProt Q5VVQ6); details: DUB OTU1; screening concentration 5 μM
T15 construct: purchased Ubiquigent (DUBprofiler service)
Description: as §1

[16] = target: T16, panel of 48 purified DUBs (Homo sapiens, UniProt Q70EL2); details: DUB USP45; screening concentration 5 μM; 5 µM
T16 construct: purchased Ubiquigent (DUBprofiler service)
Description: as §1

[17] = target: T17, panel of 48 purified DUBs (Homo sapiens, UniProt Q7L8S5); details: DUB OTUD6A; screening concentration 5 μM; 5 µM
T17 construct: purchased Ubiquigent (DUBprofiler service)
Description: as §1

[18] = target: T18, panel of 48 purified DUBs (Homo sapiens, UniProt Q86UV5); details: DUB USP48; screening concentration 5 μM; 5 µM
T18 construct: purchased Ubiquigent (DUBprofiler service)
Description: as §1

[19] = target: T19, panel of 48 purified DUBs (Homo sapiens, UniProt Q8TAC2); details: DUB JOSD2; screening concentration 5 μM; 5 µM
T19 construct: purchased Ubiquigent (DUBprofiler service)
Description: as §1

[20] = target: T20, panel of 48 purified DUBs (Homo sapiens, UniProt Q93008); details: DUB USP9X; screening concentration 5 μM; 5 µM
T20 construct: purchased Ubiquigent (DUBprofiler service)
Description: as §1

[21] = target: T21, panel of 48 purified DUBs (Homo sapiens, UniProt Q96FJ0); details: screening concentration 5 μM, 5 µM
T21 construct: purchased Ubiquigent (DUBprofiler service)
Description: as §1

[22] = target: T22, panel of 48 purified DUBs (Homo sapiens, UniProt Q96RU2); details: DUB USP28; screening concentration 5 μM; 5 µM
T22 construct: purchased Ubiquigent (DUBprofiler service)
Description: as §1

[23] = target: T23, panel of 48 purified DUBs (Homo sapiens, UniProt Q9H3M9); details: DUB Ataxin3L; screening concentration 5 μM; 5 µM
T23 construct: purchased Ubiquigent (DUBprofiler service)
Description: as §1

[24] = target: T24, panel of 48 purified DUBs (Homo sapiens, UniProt Q9P2H5); details: DUB USP35; screening concentration 5 μM; 5 µM
T24 construct: purchased Ubiquigent (DUBprofiler service)
Description: as §1

[25] = target: T25, panel of 48 purified DUBs (Homo sapiens, UniProt Q9UHP3); details: DUB USP25; screening concentration 5 μM; 5 µM
T25 construct: purchased Ubiquigent (DUBprofiler service)
Description: as §1

[26] = target: T26, panel of 48 purified DUBs (Homo sapiens, UniProt Q9UPU5); details: DUB USP24; screening concentration 5 μM; 5 µM
T26 construct: purchased Ubiquigent (DUBprofiler service)
Description: as §1

[27] = target: T27, panel of 48 purified DUBs (Homo sapiens, UniProt Q9Y2K6); details: DUB USP20; screening concentration 5 μM; 5 µM
T27 construct: purchased Ubiquigent (DUBprofiler service)
Description: as §1

[28] = target: T28, panel of 48 purified DUBs (Homo sapiens, UniProt Q9Y5K5); details: DUB UCHL5; screening concentration 5 μM; 5 µM
T28 construct: purchased Ubiquigent (DUBprofiler service)
Description: as §1

[29] = target: T29, panel of 48 purified DUBs (Homo sapiens, UniProt Q9Y5T5); details: DUB USP16; screening concentration 5 μM; 5 µM
T29 construct: purchased Ubiquigent (DUBprofiler service)
Description: as §1

[30] = system: panel of 48 purified DUBs; details: single dose 5 μM, including AMSH-LP
Description: as §1

T21 sequence (Q96FJ0 whole entry): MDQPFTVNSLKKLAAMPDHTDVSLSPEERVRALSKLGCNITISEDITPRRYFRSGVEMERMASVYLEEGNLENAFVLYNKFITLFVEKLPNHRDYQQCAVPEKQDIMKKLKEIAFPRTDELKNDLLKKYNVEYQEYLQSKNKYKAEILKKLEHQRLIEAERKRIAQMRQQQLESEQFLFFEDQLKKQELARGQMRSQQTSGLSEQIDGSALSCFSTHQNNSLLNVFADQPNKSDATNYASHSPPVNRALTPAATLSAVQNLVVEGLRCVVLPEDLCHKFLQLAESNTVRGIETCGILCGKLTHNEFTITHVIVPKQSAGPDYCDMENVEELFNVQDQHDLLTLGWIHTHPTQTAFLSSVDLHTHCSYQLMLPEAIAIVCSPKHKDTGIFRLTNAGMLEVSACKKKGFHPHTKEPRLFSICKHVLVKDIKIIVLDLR
T23 sequence (Q9H3M9 whole entry): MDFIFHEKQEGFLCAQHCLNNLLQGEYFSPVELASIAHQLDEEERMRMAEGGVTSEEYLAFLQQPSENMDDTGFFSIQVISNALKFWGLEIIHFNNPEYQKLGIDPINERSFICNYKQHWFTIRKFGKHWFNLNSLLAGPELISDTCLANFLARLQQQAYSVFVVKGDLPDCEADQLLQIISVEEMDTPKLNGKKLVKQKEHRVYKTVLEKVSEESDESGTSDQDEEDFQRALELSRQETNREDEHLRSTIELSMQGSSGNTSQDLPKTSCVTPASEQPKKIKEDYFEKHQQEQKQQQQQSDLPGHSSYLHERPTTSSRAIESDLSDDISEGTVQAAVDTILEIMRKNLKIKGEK
T28 sequence (Q9Y5K5 whole entry): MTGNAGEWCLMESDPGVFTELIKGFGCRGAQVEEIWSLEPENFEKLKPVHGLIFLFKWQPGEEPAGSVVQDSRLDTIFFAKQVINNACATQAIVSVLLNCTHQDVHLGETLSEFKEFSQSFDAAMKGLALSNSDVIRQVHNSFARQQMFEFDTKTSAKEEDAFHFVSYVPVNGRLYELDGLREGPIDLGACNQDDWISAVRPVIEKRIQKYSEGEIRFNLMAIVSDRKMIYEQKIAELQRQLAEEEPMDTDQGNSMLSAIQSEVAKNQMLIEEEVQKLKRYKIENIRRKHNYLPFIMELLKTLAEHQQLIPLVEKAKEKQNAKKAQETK
T18 sequence (Q86UV5 whole entry): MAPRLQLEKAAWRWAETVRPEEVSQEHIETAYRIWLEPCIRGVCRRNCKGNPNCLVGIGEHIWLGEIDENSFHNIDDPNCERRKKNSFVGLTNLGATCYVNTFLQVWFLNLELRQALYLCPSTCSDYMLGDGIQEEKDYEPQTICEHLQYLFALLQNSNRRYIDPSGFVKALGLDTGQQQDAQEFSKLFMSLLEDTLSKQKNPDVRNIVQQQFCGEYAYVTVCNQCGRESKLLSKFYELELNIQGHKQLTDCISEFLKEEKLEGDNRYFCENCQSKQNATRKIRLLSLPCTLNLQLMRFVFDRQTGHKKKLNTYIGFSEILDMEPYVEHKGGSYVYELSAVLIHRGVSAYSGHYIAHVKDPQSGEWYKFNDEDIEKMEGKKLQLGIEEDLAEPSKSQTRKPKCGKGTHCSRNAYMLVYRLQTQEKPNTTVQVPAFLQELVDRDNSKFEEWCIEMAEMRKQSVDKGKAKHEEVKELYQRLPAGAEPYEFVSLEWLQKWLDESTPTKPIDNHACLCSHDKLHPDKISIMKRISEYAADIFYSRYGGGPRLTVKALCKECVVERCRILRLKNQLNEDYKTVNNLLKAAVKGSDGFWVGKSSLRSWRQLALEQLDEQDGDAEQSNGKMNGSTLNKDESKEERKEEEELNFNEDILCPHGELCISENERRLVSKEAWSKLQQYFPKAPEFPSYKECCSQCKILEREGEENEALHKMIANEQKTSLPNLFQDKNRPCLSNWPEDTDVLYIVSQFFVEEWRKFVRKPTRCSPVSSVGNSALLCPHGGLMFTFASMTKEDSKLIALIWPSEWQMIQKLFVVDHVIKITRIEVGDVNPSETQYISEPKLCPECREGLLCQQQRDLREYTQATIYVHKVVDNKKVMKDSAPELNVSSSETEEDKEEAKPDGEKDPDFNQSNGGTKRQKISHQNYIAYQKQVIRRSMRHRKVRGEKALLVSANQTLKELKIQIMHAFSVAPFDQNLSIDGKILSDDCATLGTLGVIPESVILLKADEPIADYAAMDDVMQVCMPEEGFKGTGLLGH
T4 sequence (O94782 whole entry): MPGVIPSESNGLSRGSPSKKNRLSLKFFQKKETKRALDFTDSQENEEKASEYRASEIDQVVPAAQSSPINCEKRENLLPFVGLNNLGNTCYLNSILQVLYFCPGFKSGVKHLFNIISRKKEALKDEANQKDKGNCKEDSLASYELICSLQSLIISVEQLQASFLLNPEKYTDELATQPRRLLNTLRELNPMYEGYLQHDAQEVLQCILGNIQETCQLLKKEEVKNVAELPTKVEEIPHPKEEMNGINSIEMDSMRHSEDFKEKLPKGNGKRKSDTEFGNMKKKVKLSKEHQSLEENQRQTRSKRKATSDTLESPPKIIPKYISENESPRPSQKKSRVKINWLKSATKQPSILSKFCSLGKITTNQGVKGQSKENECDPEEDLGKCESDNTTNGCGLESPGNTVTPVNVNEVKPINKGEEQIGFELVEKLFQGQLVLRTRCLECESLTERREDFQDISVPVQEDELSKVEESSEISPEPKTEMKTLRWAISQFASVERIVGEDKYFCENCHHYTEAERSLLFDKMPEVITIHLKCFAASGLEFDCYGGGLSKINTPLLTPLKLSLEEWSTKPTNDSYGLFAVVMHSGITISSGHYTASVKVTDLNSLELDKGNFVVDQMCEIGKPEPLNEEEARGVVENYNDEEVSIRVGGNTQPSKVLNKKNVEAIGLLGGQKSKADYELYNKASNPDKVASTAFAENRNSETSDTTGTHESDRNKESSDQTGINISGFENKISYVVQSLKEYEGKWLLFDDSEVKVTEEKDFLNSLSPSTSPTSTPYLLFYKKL
T5 sequence (P15374 whole entry): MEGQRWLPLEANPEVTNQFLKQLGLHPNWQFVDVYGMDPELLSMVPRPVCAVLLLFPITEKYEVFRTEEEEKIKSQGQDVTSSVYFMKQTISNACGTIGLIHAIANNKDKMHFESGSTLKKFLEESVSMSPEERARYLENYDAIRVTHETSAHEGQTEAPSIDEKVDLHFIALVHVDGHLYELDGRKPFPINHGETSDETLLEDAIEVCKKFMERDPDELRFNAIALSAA
T17 sequence (Q7L8S5 whole entry): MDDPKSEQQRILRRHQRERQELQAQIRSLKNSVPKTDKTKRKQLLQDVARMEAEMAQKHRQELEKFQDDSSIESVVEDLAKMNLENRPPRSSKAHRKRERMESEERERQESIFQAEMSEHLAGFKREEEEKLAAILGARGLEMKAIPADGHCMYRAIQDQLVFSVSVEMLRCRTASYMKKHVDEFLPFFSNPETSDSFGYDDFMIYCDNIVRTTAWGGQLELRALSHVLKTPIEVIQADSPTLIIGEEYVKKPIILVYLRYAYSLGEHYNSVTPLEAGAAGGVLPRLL
T25 sequence (Q9UHP3 whole entry): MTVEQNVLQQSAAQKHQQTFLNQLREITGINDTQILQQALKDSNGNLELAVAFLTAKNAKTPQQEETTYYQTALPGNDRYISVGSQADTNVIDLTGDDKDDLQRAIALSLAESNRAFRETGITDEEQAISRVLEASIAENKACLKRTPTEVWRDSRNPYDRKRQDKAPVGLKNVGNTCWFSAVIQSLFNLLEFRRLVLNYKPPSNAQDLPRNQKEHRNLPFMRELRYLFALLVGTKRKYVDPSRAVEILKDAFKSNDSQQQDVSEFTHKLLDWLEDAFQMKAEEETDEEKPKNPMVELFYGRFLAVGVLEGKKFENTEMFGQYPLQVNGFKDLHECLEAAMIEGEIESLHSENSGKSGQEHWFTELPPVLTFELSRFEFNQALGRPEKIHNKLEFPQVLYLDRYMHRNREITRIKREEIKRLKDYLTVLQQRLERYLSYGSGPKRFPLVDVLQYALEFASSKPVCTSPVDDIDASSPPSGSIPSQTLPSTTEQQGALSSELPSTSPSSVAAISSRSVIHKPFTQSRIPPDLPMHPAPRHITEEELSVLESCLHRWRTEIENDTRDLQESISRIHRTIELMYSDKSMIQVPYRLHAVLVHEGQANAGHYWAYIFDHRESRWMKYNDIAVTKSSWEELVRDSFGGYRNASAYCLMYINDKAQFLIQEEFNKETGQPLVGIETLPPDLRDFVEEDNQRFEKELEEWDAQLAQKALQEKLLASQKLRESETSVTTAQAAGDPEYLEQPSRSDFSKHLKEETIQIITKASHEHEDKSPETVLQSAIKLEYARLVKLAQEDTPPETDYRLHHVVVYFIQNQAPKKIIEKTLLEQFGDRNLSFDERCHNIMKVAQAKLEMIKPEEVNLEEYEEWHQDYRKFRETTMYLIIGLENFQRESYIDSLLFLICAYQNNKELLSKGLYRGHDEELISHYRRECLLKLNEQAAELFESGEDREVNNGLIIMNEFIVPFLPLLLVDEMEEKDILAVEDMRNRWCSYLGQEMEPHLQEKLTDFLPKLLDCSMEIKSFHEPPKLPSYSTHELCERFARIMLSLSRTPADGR
T10 sequence (P54578 whole entry): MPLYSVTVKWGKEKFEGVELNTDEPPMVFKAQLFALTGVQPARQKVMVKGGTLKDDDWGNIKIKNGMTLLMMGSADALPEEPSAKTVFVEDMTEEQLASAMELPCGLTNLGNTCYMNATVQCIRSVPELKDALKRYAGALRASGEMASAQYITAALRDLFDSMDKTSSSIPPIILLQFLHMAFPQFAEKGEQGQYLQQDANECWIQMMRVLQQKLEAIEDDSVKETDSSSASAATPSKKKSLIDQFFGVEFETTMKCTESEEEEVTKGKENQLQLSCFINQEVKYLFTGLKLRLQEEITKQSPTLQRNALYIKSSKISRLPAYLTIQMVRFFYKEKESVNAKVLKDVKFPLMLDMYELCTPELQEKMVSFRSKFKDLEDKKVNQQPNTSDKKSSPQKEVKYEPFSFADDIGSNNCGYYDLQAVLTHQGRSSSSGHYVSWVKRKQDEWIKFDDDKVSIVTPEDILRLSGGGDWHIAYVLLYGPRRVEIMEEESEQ

SMILES: O=C(NC1CCNCC1)c1nn(C(=O)c2c(Cl)cccc2Cl)cc1NC(=O)c1c(Cl)cccc1Cl [JMS-175-2]
- Activity (% control) [1]: 102 % control and 97 % control
- Activity (% control) [2]: 96 % control
- Activity (% control) [3]: 86 % control and 84 % control
- Activity (% control) [4]: 81 % control and 82 % control
- Activity (% control) [5]: 95 % control and 96 % control
- Activity (% control) [6]: 92 % control and 95 % control
- Activity (% control) [7]: 88 % control and 84 % control
- Activity (% control) [8]: 103 % control and 105 % control
- Activity (% control) [9]: 102 % control and 100 % control
- Activity (% control) [10]: 85 % control and 95 % control
- Activity (% control) [11]: 95 % control and 99 % control
- Activity (% control) [12]: 95 % control and 102 % control
- Activity (% control) [13]: 67 % control
- Activity (% control) [14]: 100 % control and 102 % control
- Activity (% control) [15]: 84 % control
- Activity (% control) [16]: 112 % control and 107 % control
- Activity (% control) [17]: 100 % control and 103 % control
- Activity (% control) [18]: 99 % control and 103 % control
- Activity (% control) [19]: 101 % control and 102 % control
- Activity (% control) [20]: 103 % control and 98 % control
- Activity (% control) ([21]; DUB AMSH-LP(+Zn2+)): 100 % control and 99 % control
- Activity (% control) ([21]; DUB AMSH-LP): 98 % control and 90 % control
- Activity (% control) [22]: 107 % control and 96 % control
- Activity (% control) [23]: 98 % control and 95 % control
- Activity (% control) [24]: 96 % control and 94 % control
- Activity (% control) [25]: 93 % control and 94 % control
- Activity (% control) [26]: 98 % control and 99 % control
- Activity (% control) [27]: 93 % control and 101 % control
- Activity (% control) [28]: 90 % control and 98 % control
- Activity (% control) [29]: 79 % control and 78 % control
- inhibition of a panel of 48 DUBs [30]: did not fully inhibit any of the DUBs
